Patent US5679828A (priority 1995, dated 1997)

Experiments:
[1] = test system: HIV-induced membrane fusion; experiment: Inhibition of HIV-induced membrane fusion / syncytia formation reported in the literature; assay type: cell-based; conditions: versus compounds 2-5 or 8-10; CEM4 here, H9 in the literature
[2] = test system: HIV-1; conditions: Table 1 footnote h: data from reference 8; cited from earlier work
[3] = test system: HIV-1 RT; conditions: Table 1 footnote h: data from reference 8; cited from earlier work
[4] = test system: HIV-induced membrane fusion; conditions: cited from earlier work

In the case of `C=C(C)[C@@H]1CC[C@]2(C(=O)NCCCCCCCC(=O)N[C@@H](CC(C)C)[C@@H](O)CC(=O)O)CC[C@]3(C)[C@H](CC[C@@H]4[C@@]5(C)CC[C@H](O)C(C)(C)[C@@H]5CC[C@]43C)[C@@H]12` [Compound 12], the “potency in inhibiting syncytia formation relative to compounds 2-5 or 8-10” value [1] is listed as “approximately ten”, the EC50 [2] is listed as 30 nM and the T.I. [2] is listed as over 90. For the same molecule, the “HIV-RT Assay IC50” value [3] was “No Inhibition”, the “Fusion Assay IC100” value ([4]; Table 1 footnote h: data from reference 8) was 3 µg/mL and the inhibit syncytia formation ([4]; reported in the literature, H9 cell line) was 3 µg/mL.
